Columns and labels:
[1] = tested on: progesterone receptor (PR) binding to genomic regions in T-47D breast cancer cells; assay: ChIP-PCR of PR binding regions in T-47D cells; assay type: cell-based, human
Experimental: Cells were cultured to 80% confluency in 15 cm tissue culture dishes, then treated for 45 minutes with 10 nM ORG2058 or vehicle. Chromatin was subsequently cross-linked by the addition of formaldehyde to the culture medium to a final concentration of 1% and incubation for 10 minutes at 37° C. Media were immediately removed and the cells were washed with cold phosphate buffered saline and harvested by scraping. Cells were collected by centrifugation and pellets were lysed 10 minutes at 4° C. in SDS buffer (1% SDS; 10 mM EDTA; 50 mM Tris-HCl, pH 8). The lysates were sonicated at 4° C. with a Branson 450 sonicator, using seven one minute bursts at 40% amplitude and 60% duty, each separated by a rest of at least one minute. Lysates were centrifuged at 13,000×g at 4° C. for 15 minutes to remove debris. […] Supernatants were diluted 1:10 with IP buffer (0.5% NP-40; 50 mM Tris, pH 8; 120 mM NaCl; 0.5 mM PMSF; Complete protease inhibitor cocktail, Roche, Ryde, Australia) and pre-cleared by incubation with Dynabeads M-280 sheep anti-mouse IgG magnetic beads (Invitrogen, Mulgrave, Australia), with gentle rotation at 4° C. for at least 2 h to reduce non-specific binding to the secondary antibody beads. Genomic DNA fragments that were bound to PR were isolated by rotation overnight at 4° C. with in-house hPRa6 and hPRa7 mouse monoclonal anti-PR antibodies and fresh sheep anti-mouse IgG magnetic beads (40 ul per 1.4 ml diluted lysate). Beads were washed sequentially with IP buffer, high salt wash buffer (0.5% NP-40, 50 mM Tris, pH 8, 500 mM NaCl, 0.5 mM PMSF), lithium wash buffer (250 mM LiCl, 0.5% NP-40, 1% sodium deoxycholate, 1 mM EDTA, pH 8, 10 mM Tris-HCl, pH 8) and TE (10 mM Tris, pH 8, 1 mM EDTA). Isolated DNA fragments were eluted twice for 15 minutes at room temperature using elution buffer (1% SDS, 0.1M NaHCO3). Cross-links were reversed by addition of 0.25M NaCl and heating to 65° C. for at least 6 h. DNA fragments were purified using Qiagen PCR purification columns (Qiagen, Doncaster, Australia). DNA fragments isolated by PR chromatin immunoprecipitation from ORG2058 treated cells were sequenced on an Illumina GA-IIx sequencer at the Ramaciotti Centre for Gene Function Analysis (University of New South Wales, Australia) and GeneWorks (Hindmarsh, Australia). Input DNA isolated from the pre-cleared ORG2058 treated samples were sequenced as a baseline control. An aliquot of DNA was isolated from the ORG2058-treated, pre-cleared sample, to serve as an input DNA control sample in next-generation sequencing.
Directed ChIP was performed using the same protocol as described for ChIP-seq. Target templates were quantitated using Platinum Sybr Green reagents (Invitrogen) in a RotorGene 6000 real-time PCR machine. Directed ChIP was carried out as described above and purified gDNA fragments were diluted 2 to 5-fold prior to quantitation by real-time qPCR.
We conducted ChIP-PCR in T-47D cells and a second breast cancer cell line HCC1428, with ORG2058, onapristone, their combination or vehicle. The concentrations used were 1 nM ORG2058 and 100 nM onapristone.

[2] = tested on: progestin-regulated genes in T-47D cells; assay: Expression profiling in T-47D cells; assay type: cell-based, human
Experimental: (§1) Total RNA was isolated using RNAqueous purification columns (Invitrogen). Total RNA (500 ng) was amplified and biotin labelled using Illumina TotalPrep reagents (Invitrogen). The amplified samples (750 ng) were hybridized to human whole genome HT-12 gene expression bead arrays using the recommended Illumina reagents and following the manufacturer's protocol. Raw data were analysed using Genome Studio software (Illumina). After background subtraction data and cubic spline normalization, differential expression p values were determined using the Illumina custom model of Genome Studio. Data were further analysed using Microsoft Excel and SPSS statistical software. Hierarchical clustering and self organizing map clustering were performed using GenePattern.
(§2) Onapristone ablated progestin regulation of all but 5 genes in T-47D and 6 genes in HCC1428.

[3] = tested on: progesterone receptor (PR) binding to genomic regions in HCC1428 breast cancer cells; assay: ChIP-PCR of PR binding regions in HCC1428 cells; assay type: cell-based, human
Experimental: Cells were cultured to 80% confluency in 15 cm tissue culture dishes, then treated for 45 minutes with 10 nM ORG2058 or vehicle. Chromatin was subsequently cross-linked by the addition of formaldehyde to the culture medium to a final concentration of 1% and incubation for 10 minutes at 37° C. Media were immediately removed and the cells were washed with cold phosphate buffered saline and harvested by scraping. Cells were collected by centrifugation and pellets were lysed 10 minutes at 4° C. in SDS buffer (1% SDS; 10 mM EDTA; 50 mM Tris-HCl, pH 8). The lysates were sonicated at 4° C. with a Branson 450 sonicator, using seven one minute bursts at 40% amplitude and 60% duty, each separated by a rest of at least one minute. Lysates were centrifuged at 13,000×g at 4° C. for 15 minutes to remove debris. […]
Directed ChIP was performed using the same protocol as described for ChIP-seq. Target templates were quantitated using Platinum Sybr Green reagents (Invitrogen) in a RotorGene 6000 real-time PCR machine. Directed ChIP was carried out as described above and purified gDNA fragments were diluted 2 to 5-fold prior to quantitation by real-time qPCR. […]

[4] = tested on: progestin-regulated genes in HCC1428 cells; assay: Expression profiling in HCC1428 cells; assay type: cell-based, human; details: onapristone with 1 nM ORG2058
Experimental: as §1, §2

PR = biological target: T1, PR (Homo sapiens, UniProt P06401); details: relative to the synthetic analogue ORG2058; cited from earlier work
T1 sequence (P06401 1-933): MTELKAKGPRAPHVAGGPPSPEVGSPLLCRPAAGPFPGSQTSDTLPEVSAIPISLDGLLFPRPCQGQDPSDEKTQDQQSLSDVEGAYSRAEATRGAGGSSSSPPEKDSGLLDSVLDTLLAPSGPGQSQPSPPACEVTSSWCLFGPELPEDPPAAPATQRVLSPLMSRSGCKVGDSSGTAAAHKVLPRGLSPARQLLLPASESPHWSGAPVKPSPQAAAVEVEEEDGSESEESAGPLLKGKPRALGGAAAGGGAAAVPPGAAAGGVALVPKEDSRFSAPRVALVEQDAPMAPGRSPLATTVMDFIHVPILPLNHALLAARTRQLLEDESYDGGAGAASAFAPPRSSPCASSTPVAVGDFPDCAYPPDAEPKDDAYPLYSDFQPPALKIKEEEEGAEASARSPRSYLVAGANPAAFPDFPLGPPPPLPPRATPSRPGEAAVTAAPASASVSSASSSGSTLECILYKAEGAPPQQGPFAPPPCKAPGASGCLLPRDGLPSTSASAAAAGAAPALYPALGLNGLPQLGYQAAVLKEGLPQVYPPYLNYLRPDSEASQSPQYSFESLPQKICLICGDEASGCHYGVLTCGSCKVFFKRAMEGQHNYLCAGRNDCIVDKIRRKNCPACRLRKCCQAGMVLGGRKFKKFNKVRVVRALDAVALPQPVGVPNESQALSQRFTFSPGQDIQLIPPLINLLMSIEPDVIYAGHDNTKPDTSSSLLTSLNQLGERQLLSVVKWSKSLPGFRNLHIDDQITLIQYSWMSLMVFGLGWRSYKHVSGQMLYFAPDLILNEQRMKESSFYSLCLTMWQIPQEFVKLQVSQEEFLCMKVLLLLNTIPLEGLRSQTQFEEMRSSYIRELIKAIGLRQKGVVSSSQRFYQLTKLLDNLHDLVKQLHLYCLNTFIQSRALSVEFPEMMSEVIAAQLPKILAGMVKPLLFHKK

[5] = 1 nM ORG2058, in one or both cell lines (T-47D, HCC1428)

Q: With `CC[C@@H]1C[C@H]2[C@@H]3CCC4=CC(=O)CC[C@@H]4[C@H]3CC[C@]2(C)[C@H]1C(=O)CO` [ORG2058, (8R,9S,10R,13S,14S,16R,17S)-16-ethyl-17-(2-hydroxyacetyl)-13-methyl-2,6,7,8,9,10,11,12,14,15,16,17-dodecahydro-1H-cyclopenta[a]phenanthren-3-one] as the molecule, how does the “ORG effects at the concentration used (preliminary experiments)” value ([1]; 1 nM ORG2058, cell line of preliminary experiments not stated) read?
A: maximal

Q: What about the “PR binding regions with binding by ORG2058-liganded PR confirmed” value ([1]; T-47D, 1 nM ORG2058, ten regions tested) of the same molecule?
A: 9 of the 10

Q: And the Differentially expressed probes [2, 5]?
A: 309 probes

Q: And the Genes regulated [2, 5]?
A: 267 genes

Q: And the “PR binding regions with binding by ORG2058-liganded PR confirmed” value ([3]; 1 nM ORG2058, ten regions tested)?
A: 9 of the 10

Q: Which “Genes whose progestin regulation was not ablated by onapristone” value [4] does the source give for `CN(C)c1ccc([C@H]2C[C@]3(C)[C@@H](CC[C@]3(O)CCCO)[C@@H]3CCC4=CC(=O)CCC4=C32)cc1` [onapristone, (8S,11R,13R,14S,17S)-11-[4-(dimethylamino)phenyl]-17-hydroxy-17-(3-hydroxypropyl)-13-methyl-1,2,6,7,8,11,12,14,15,16-decahydrocyclopenta[a]phenanthren-3-one] here?
A: 6 genes

Q: And the “PR binding in the presence of onapristone alone” value ([1]; 100 nM onapristone alone, mainly in T-47D cells)?
A: PR binding to some targets

Q: What about the “Effect of onapristone on ORG effects (preliminary experiments)” value ([1]; 100 nM onapristone with 1 nM ORG2058, cell line of preliminary experiments not stated) of the same molecule?
A: ablated

Q: And the “PR binding regions with attenuation of ORG2058-liganded PR binding by onapristone confirmed” value ([1]; T-47D, 100 nM onapristone + 1 nM ORG2058, ten regions tested)?
A: 9 of the 10 and attenuated

Q: What about the “Genes whose progestin regulation was not ablated by onapristone” value ([2]; T-47D, onapristone with 1 nM ORG2058) of the same molecule?
A: 5 genes

Q: And the “PR binding regions with attenuation of ORG2058-liganded PR binding by onapristone confirmed” value ([3]; 100 nM onapristone + 1 nM ORG2058, ten regions tested)?
A: 9 of the 10 and attenuated

Q: Which “Dissociation from PR compared with ORG2058” value (PR) does the source give for `CC(=O)[C@H]1CC[C@H]2[C@@H]3CCC4=CC(=O)CC[C@]4(C)[C@H]3CC[C@]12C` [progesterone] here?
A: more rapidly
